Assay results as given in ChEMBL document CHEMBL1201862, “PubChem BioAssay data set” (2004).
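All cell lines were grown in 96-well plates and treated with compound for 48 hours. GI50 marks 50% less growth.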 Calls of active or inactive are those of the source. No stated cut-off is given here; in the data, active = GI50 up to about 1.1 µM and inactive = higher.

Experiments:
Experiment in all cases: NCI tumour cell line growth inhibition, 48 h
ACHN = system: ACHN
SK-MEL-5 = system: SK-MEL-5
COLO 205 = system: COLO 205
OVCAR-3 = system: OVCAR-3
KM12 = system: KM12
SF-539 = system: SF-539
SW-620 = system: SW-620
HOP-92 = system: HOP-92
UACC-62 = system: UACC-62
NCI-H460 = system: NCI-H460
LOX IMVI = system: LOX IMVI
Malme-3M = system: Malme-3M
PC-3 = system: PC-3
RPMI-8226 = system: RPMI-8226
SR = system: SR
NCI-H226 = system: NCI-H226
CAKI-1 = system: CAKI-1
HOP-62 = system: HOP-62
HCC 2998 = system: HCC 2998

SMILES: CC(C)=CCC[C@@H](C)/C=C/C=C(\C)C(=O)CC[C@@H]1CC[N@+]2(C)CCCC[C@H]12
- GI50 (ACHN): > 100 µM (inactive)
- GI50 (SK-MEL-5): > 100 µM (inactive)
- GI50 (COLO 205): 81.3 µM (inactive)
- GI50 (OVCAR-3): 32.9 µM (inactive)
- GI50 (KM12): > 100 µM (inactive)
- GI50 (SF-539): > 100 µM (inactive)
- GI50 (SW-620): > 100 µM (inactive)
- GI50 (HOP-92): 6.44 µM (inactive)
- GI50 (UACC-62): > 100 µM (inactive)
- GI50 (NCI-H460): > 100 µM (inactive)
- GI50 (LOX IMVI): 35.2 µM (inactive)
- GI50 (Malme-3M): 79.8 µM (inactive)
- GI50 (PC-3): 31 µM (inactive)
- GI50 (RPMI-8226): 70 µM (inactive)
- GI50 (SR): > 100 µM (inactive)
- GI50 (NCI-H226): 4.47 µM (inactive)
- GI50 (CAKI-1): > 100 µM (inactive)
- GI50 (HOP-62): > 100 µM (inactive)
- GI50 (HCC 2998): > 100 µM (inactive)

SMILES: CN(C)CCCn1nc(N)c2nc3cc(Cl)ccc3nc21
- GI50 (ACHN): 39.7 µM (inactive)
- GI50 (SK-MEL-5): 20 µM (inactive)
- GI50 (COLO 205): 33 µM (inactive)
- GI50 (OVCAR-3): 99.8 µM (inactive)
- GI50 (KM12): 43.9 µM (inactive)
- GI50 (SF-539): 38.2 µM (inactive)
- GI50 (SW-620): 36.2 µM (inactive)
- GI50 (HOP-92): 25.3 µM (inactive)
- GI50 (UACC-62): 20.7 µM (inactive)
- GI50 (NCI-H460): 39.3 µM (inactive)
- GI50 (LOX IMVI): 34.8 µM (inactive)
- GI50 (Malme-3M): 41.1 µM (inactive)
- GI50 (PC-3): 41.4 µM (inactive)
- GI50 (RPMI-8226): 60.3 µM (inactive)
- GI50 (SR): 32.5 µM (inactive)
- GI50 (NCI-H226): 45.2 µM (inactive)
- GI50 (CAKI-1): > 79.6 µM (inactive)
- GI50 (HOP-62): 55.3 µM (inactive)
- GI50 (HCC 2998): 35.7 µM (inactive)

SMILES: COc1cc2nc3c(=C(C#N)C#N)c4ccccc4n3c(=O)c2cc1OC
- GI50 (ACHN): > 100 µM (inactive)
- GI50 (SK-MEL-5): > 100 µM (inactive)
- GI50 (COLO 205): > 100 µM (inactive)
- GI50 (OVCAR-3): > 100 µM (inactive)
- GI50 (KM12): > 100 µM (inactive)
- GI50 (SF-539): > 100 µM (inactive)
- GI50 (SW-620): > 100 µM (inactive)
- GI50 (HOP-92): 36.5 µM (inactive)
- GI50 (UACC-62): > 100 µM (inactive)
- GI50 (NCI-H460): > 100 µM (inactive)
- GI50 (LOX IMVI): > 100 µM (inactive)
- GI50 (PC-3): > 100 µM (inactive)
- GI50 (RPMI-8226): > 100 µM (inactive)
- GI50 (SR): > 100 µM (inactive)
- GI50 (NCI-H226): > 100 µM (inactive)
- GI50 (CAKI-1): > 100 µM (inactive)
- GI50 (HOP-62): > 100 µM (inactive)
- GI50 (HCC 2998): > 100 µM (inactive)

SMILES: CC1=CC(=O)N(n2c(Cc3ccc(Cl)cc3)n[nH]c2=O)C1=O
- GI50 (ACHN): 82 µM (inactive)
- GI50 (SK-MEL-5): 46 µM (inactive)
- GI50 (COLO 205): 71.3 µM (inactive)
- GI50 (OVCAR-3): 33.6 µM (inactive)
- GI50 (KM12): 52.4 µM (inactive)
- GI50 (SF-539): 39.1 µM (inactive)
- GI50 (SW-620): 32.5 µM (inactive)
- GI50 (HOP-92): 21.1 µM (inactive)
- GI50 (UACC-62): 19.3 µM (inactive)
- GI50 (NCI-H460): 36.1 µM (inactive)
- GI50 (LOX IMVI): 27.6 µM (inactive)
- GI50 (Malme-3M): 94.2 µM (inactive)
- GI50 (PC-3): 26.4 µM (inactive)
- GI50 (RPMI-8226): 22.6 µM (inactive)
- GI50 (SR): 15.9 µM (inactive)
- GI50 (NCI-H226): > 100 µM (inactive)
- GI50 (CAKI-1): 88.3 µM (inactive)
- GI50 (HCC 2998): > 100 µM (inactive)

SMILES: c1ccc2cc(CNCCCCNCCCNCc3ccc4ccccc4c3)ccc2c1
- GI50 (ACHN): 1.42 µM (inactive)
- GI50 (SK-MEL-5): 2.4 µM (inactive)
- GI50 (COLO 205): 0.277 µM (active)
- GI50 (OVCAR-3): 1.6 µM (inactive)
- GI50 (KM12): 0.403 µM (active)
- GI50 (SF-539): 1.69 µM (inactive)
- GI50 (SW-620): 0.324 µM (active)
- GI50 (HOP-92): 1.56 µM (inactive)
- GI50 (UACC-62): 1.75 µM (inactive)
- GI50 (NCI-H460): 0.188 µM (active)
- GI50 (LOX IMVI): 0.202 µM (active)
- GI50 (Malme-3M): 1.71 µM (inactive)
- GI50 (PC-3): 1.63 µM (inactive)
- GI50 (RPMI-8226): 0.226 µM (active)
- GI50 (SR): 0.351 µM (active)
- GI50 (NCI-H226): 1.17 µM (inactive)
- GI50 (CAKI-1): 1.81 µM (inactive)
- GI50 (HOP-62): 1.61 µM (inactive)
- GI50 (HCC 2998): 0.48 µM (active)

SMILES: Nc1nc(=O)n(C2OC(CO)C(O)C2O)c2ncc(-c3ccc(-c4ccccc4)cc3)nc12 (stereo unspecified)
- GI50 (ACHN): > 100 µM (inactive)
- GI50 (SK-MEL-5): > 100 µM (inactive)
- GI50 (COLO 205): > 100 µM (inactive)
- GI50 (KM12): > 100 µM (inactive)
- GI50 (SF-539): > 100 µM (inactive)
- GI50 (SW-620): > 100 µM (inactive)
- GI50 (HOP-92): > 100 µM (inactive)
- GI50 (UACC-62): 66.4 µM (inactive)
- GI50 (NCI-H460): > 100 µM (inactive)
- GI50 (LOX IMVI): 83.2 µM (inactive)
- GI50 (Malme-3M): > 100 µM (inactive)
- GI50 (PC-3): > 100 µM (inactive)
- GI50 (RPMI-8226): > 100 µM (inactive)
- GI50 (SR): 3.63 µM (inactive)
- GI50 (NCI-H226): 24.1 µM (inactive)
- GI50 (CAKI-1): > 100 µM (inactive)
- GI50 (HOP-62): 60 µM (inactive)
- GI50 (HCC 2998): > 100 µM (inactive)
